From patent publication US9526707B2, “Methods for treating or preventing neuroinflammation or autoimmune diseases” (priority 2007, dated 2016)
“Also recorded” adds a separate entry of the source. Counter-ions that a name gives are not always drawn. Blank lines part the entries; values can stand above or below the compound they belong to.

Key:
mouse cytokines in serum = experiment: Serum cytokine levels in EAE mice, BioPlex multiplexable bead assay; format: in vivo
Protocol: The effect of Didox on cytokine levels was tested. As before, two groups were assembled, one treated with Didox while the other group served as a control and only received saline injections. […] EAE was initiated in all animals depicted at the same time and in an identical manner. All animals were of the same experimental time point at the time of serum collection for cytokine analysis. The Didox treated group experienced a decrease of two points in the EAE clinical score. The analysis of cytokine levels was performed by utilizing a BioPlex® multiplexable bead assay method that simultaneously quantitates mouse cytokines in diverse matrices. In this example the assay was carried out on serum derived from mice of the two groups (Didox and saline treated) at day 12 post MOG induced EAE. Blood was obtained by cardiac aspiration from mice that had been euthanized by CO2. Serum was obtained from clotted blood after centrifugation and stored at […] until assayed. For analysis the serum was diluted and analyzed with the Bio-Plex® assay system. The system utilized beads that are internally labeled with two fluorescent dyes (one for identification of the bead and one for covalent attachment of ligands (or biomolecules). Once an antibody was conjugated to the bead a sample of serum was added and followed by a reporter antibody that is often biotinylated. Following incubation with biotinylated reporter antibody, strepavidin/phycoerythrin was added to make detection possible. The system can profile up to 23 mouse cytokines. Table B indicates the amount of cytokine present (pg/mL) in the serum.

[1] = system: T-cells in splenocytes from C57BL/6 mice; experiment: T-cell proliferation of CD3/CD28 stimulated splenocytes (BrdU); format: cell-based, mouse; settings: 48 hours with compound, b156: at 100 μM
Protocol: A series of in vitro experiments were conducted to ascertain the effect of Didox on immune function. A mixed splenocyte preparation was divided into two portions, one was stimulated with CD3 and CD28 to specifically activate T-cells while the other served as a control. The splenocytes were isolated from female C57BL/6 mice (6-8 weeks old) and the splenocytes were incubated for 24 hours with CD3/CD28 coated wells, after which Didox was added at varying concentrations. The cells were then incubated for an additional 48 hours. Each well was labeled with BrdU for the last 24 hours and the wells analyzed according to the manufacturer's instructions (Roche-Cell Proliferation Chemiluminescent assay kit). FIG. 7 depicts the results of these experiments. The solid black bars represent un-stimulated splenocytes while the white bars the effect of varying concentrations of Didox on the amount of T-Cells present.

[2] = system: Experimental Autoimmune Encephalomyelitis (EAE) in C57BL/6 mice; experiment: EAE model, treatment started at day 16 after MOG booster (established symptoms); format: in vivo, mouse; settings: 250 mg/kg intraperitoneally, started 16 days after MOG35-55 booster
Excerpt: One method of showing the efficacy of the disclosed compounds for the treatment of various conditions associated with multiple sclerosis (MS) is its ability to inhibit effects of Experimental Autoimmune Encephalomyelitis (EAE) in laboratory animals. EAE is an animal model for MS, which entails inducing a T-cell-mediated autoimmune disease against myelin basic protein in certain susceptible mammalian species. The EAE model is an appropriate method for studying the inflammation of the brain and spinal cord associated with MS (see Bolton, C. Mult. Scler. 1995; 1(3); 143-9). […] The symptoms that are observed in animals vary from mild gait disturbances and tail atony to complete paralysis and death. These clinical manifestations are given a clinical score ranging from 0 to 5. In the present situation, the scores were based on the following criteria: clinical score 0, no signs; 1.0 limp tail; 2.0 limptail with loss of righting; 3.0 paralysis of single hind limb; 4.0 paralysis of both hind limbs; 5.0 death. Weight loss typically occurs. In animals that survive, spontaneous recovery occurs, accompanied by variable recovery of most motor function. Depending on the species, allergen, and methodology used, animals tested by the EAE model may experience a single (acute EAE) or several (chronic relapsing EAE) attacks. […]

[3] = system: Experimental Autoimmune Encephalomyelitis (EAE) in C57BL/6 mice; experiment: Experimental Autoimmune Encephalomyelitis (EAE) model, treatment started two days prior to MOG booster; format: in vivo, mouse; settings: for effect on EAE clinical symptoms (in words): treated versus control animals, FIG. 1, 3, 4, 5
Excerpt: One method of showing the efficacy of the disclosed compounds for the treatment of various conditions associated with multiple sclerosis (MS) is its ability to inhibit effects of Experimental Autoimmune Encephalomyelitis (EAE) in laboratory animals. EAE is an animal model for MS, which entails inducing a T-cell-mediated autoimmune disease against myelin basic protein in certain susceptible mammalian species. The EAE model is an appropriate method for studying the inflammation of the brain and spinal cord associated with MS (see Bolton, C. Mult. Scler. 1995; 1(3); 143-9). […] The symptoms that are observed in animals vary from mild gait disturbances and tail atony to complete paralysis and death. These clinical manifestations are given a clinical score ranging from 0 to 5. In the present situation, the scores were based on the following criteria: clinical score 0, no signs; 1.0 limp tail; 2.0 limptail with loss of righting; 3.0 paralysis of single hind limb; 4.0 paralysis of both hind limbs; 5.0 death. Weight loss typically occurs. In animals that survive, spontaneous recovery occurs, accompanied by variable recovery of most motor function. Depending on the species, allergen, and methodology used, animals tested by the EAE model may experience a single (acute EAE) or several (chronic relapsing EAE) attacks.
Experimental autoimmune encephalomyelitis was induced in C57BL/6 mice using the following protocol. Female C57BL/6 mice (6-8 weeks old, N=24) purchased from Jackson Labs, were allowed to acclimate for one week prior to EAE induction. EAE was induced using myelin oligodendrocyte glycoprotein peptide 35-55 (MOG35-55, MEVGWYRSPFSRVVHL-YRNGK). The MOG35-55 injection with Freund's adjuvant was administered subcutaneously adjacent to the hind leg. At the same time, the animals received an injection of pertussis toxin (200 ng in 200 μL phosphate buffered saline (PBS), intraperitoneally), and a second pertussis toxin injection two days later. Mice were given a booster injection of MOG35-55 at day No. 7. Two or three days after the second MOG booster injection, some animals begin to show signs of EAE. The mice are monitored daily using the clinical scoring system described above.
In addition, Didox delayed the onset of the disease in the minority of animals in which it occurred in the Didox treatment group, 7.3 days versus 4.4 days for the control group. […] For example, at the plateau of the clinical condition on day 12 for both the Didox and saline (control) group, represented by the open squares ? the mean clinical score was only 0.45 for the Didox treated cohort compared to a score of 1.9 for the control group. […]

activated T-cells = experiment: Secretion of inflammatory cytokines by activated T-Cells in vitro; format: cell-based
Excerpt: The purpose of this example was to determine whether Didox treatment of T-Cells in vitro produced similar data as was found in vivo using the EAE model.

EAE mice = experiment: EAE model, treatment started when mice had reached clinical stage 2 or more (clinical score); format: in vivo, mouse; settings: treatment begun at clinical stage 2 or more
[4] = system: activated microglia isolated from rat brain; experiment: Nitrite production by LPS-activated microglia; format: cell-based
Excerpt: To further evaluate the beneficial effect of Didox on brain tissue, we analyzed the ability of Didox to attenuate the production of nitrite by activated microglia, which are major contributors to the inflammatory status of EAE mice. Microglia were isolated from rat brain and activated with lipopolysaccharide (LPS) in the presence or absence of increasing concentrations of Didox. […] This observation, together with the attenuation of the T-cell inflammatory response would both contribute to the biological activity of Didox to reduce the severity of EAE.

[5] = serum, treated versus saline treated EAE mice
[6] = clinical score 0 to 5, treated from day -2 before MOG booster
[7] = 48 hours treatment of activated T-cells, even at 5 μM

- melting point: 193 °C (dec.)
Compound: NC(=NO)c1ccc(O)c(O)c1 (as salt: hydrochloride) [Example I, 3,4-dihydroxybenzamidoxime]

Compound: O=C(NO)c1ccc(O)c(O)c1 [Didox, N,3,4-trihydroxybenzamide]
- IL-4 in serum (mouse cytokines in serum; day 12 post MOG induced EAE, control 0 ± 0): 0 ± 0 pg/mL
- IL-2 in serum (mouse cytokines in serum; day 12 post MOG induced EAE, control 2 ± 2): 0.7 ± 0.2 pg/mL
- IL-5 in serum (mouse cytokines in serum; day 12 post MOG induced EAE, control 6 ± 5): 2 ± 1 pg/mL
- GM-CSF in serum (mouse cytokines in serum; day 12 post MOG induced EAE, control 7 ± 4): 0.4 ± 0.5 pg/mL
- IFN-g in serum (mouse cytokines in serum; day 12 post MOG induced EAE, control 10 ± 3): 3 ± 1 pg/mL
- IL-10 in serum (mouse cytokines in serum; day 12 post MOG induced EAE, control 16 ± 7): 3 ± 1 pg/mL
- IL-17 in serum (mouse cytokines in serum; day 12 post MOG induced EAE, control 83 ± 29): 2 ± 0.2 pg/mL
- TNF-α in serum (mouse cytokines in serum; day 12 post MOG induced EAE, control 219 ± 132): 61 ± 46 pg/mL
- IL-12 in serum (mouse cytokines in serum; day 12 post MOG induced EAE, control 559 ± 276): 36 ± 14 pg/mL
- reduction for IL-12 (mouse cytokines in serum; [5]): 15 fold
- reduction for Il-10 (mouse cytokines in serum; [5]): 5.0 fold
- reduction for TNF levels (mouse cytokines in serum; [5]): 3.5 fold
- reduction in IL-17 (mouse cytokines in serum; [5]): approximately 35 fold
- level of T-Cell proliferation [1]: reduces the level of T-cells to the amount present in un-stimulated cells; also recorded: reduced to that for un-stimulated cells
- reduction in average clinical score [2]: more than 50%
- Max. Score [3, 6]: 3
- Max. Score (mean +/− SEM) [3, 6]: 0.45 +/− 0.31
- percentage of animals that exhibited any clinical symptom of the disease ([3]; control 78%): 27%
- mean clinical score ([3]; day 12, plateau of the clinical condition, control 1.9): 0.45
- onset of the disease ([3]; in the minority of animals in which it occurred, control 4.4 days): 7.3 days
- Day of Disease Onset ([3]; treated from day -2 before MOG booster): 7.33 +/− 1.73
- effect on EAE clinical symptoms (in words) [3]: reduced the severity and delayed the onset of the clinical manifestation of the disease
- secretion of IFNγ (activated T-cells; 24 hours treatment): does not reduce the levels of these cytokines to background; also recorded: reduced to less than half the level secreted by the untreated activated T-cells
- secretion of IL-17 (activated T-cells; 24 hours treatment): does not reduce the levels of these cytokines to background
- secretion of IFNγ (activated T-cells; [7]): down to baseline levels
- secretion of IL-17 (activated T-cells; [7]): down to baseline levels
- decrease in the EAE clinical score (EAE mice): two
- nitrite production ([4]; 100 μM treatment): reached base line levels
- nitrite production, dose dependence ([4]; increasing concentrations): dose dependent attenuation of nitrite production

Compound: NC(=O)NO [hydroxyurea, reference compound]
- effect on EAE clinical symptoms (in words) [3]: did not show evidence of treating neurodegenerative diseases
